In US20170273906A1, “TARGETED LIPOSOMES ENCAPSULATING IRON COMPLEXES AND THEIR USES” (Ramot at Tel-Aviv University Ltd., priority 2014, published 2017):

What was measured:
[1] = test system: LPS stimulated RAW264.7 macrophages; test: TNF-α secretion from LPS stimulated macrophages; format: cell-based, mouse; settings: hemin dose of 50 μg/ml, FIG. 1C
Method: III. Further, the effect of hemin/HA-LP on TNF-α secretion levels from LPS stimulated RAW264.7 macrophages, on IL-12 cytokine secretion from peritoneal macrophages stimulated with LPS for 24 hours, and expression of HO-1 expression were measured. In addition, the effect of hemin/HA-L on macrophage inflammatory and anti-inflammatory properties was evaluated. First, TNF-α secretion levels from LPS stimulated RAW264.7 macrophages was measured (FIG. 1C, “LP” denoting liposome). […] Next, mouse peritoneal macrophages were stimulated with LPS for 24 hours. After LPS removal, the cells were treated with either hemin/HA-LP, empty HA-LP, free hemin or saline. […] The anti-inflammatory activity of hemin was evaluated in vitro, in the established cell line of mouse peritoneal macrophages RAW264.7. Anti-inflammatory treatment was measured by reduction in secretion of the pro-inflammatory cytokine TNF-α, in LPS-activated macrophages.

HO-1 [2] = test: HO-1 expression in LPS-activated macrophages; format: cell-based, mouse; settings: LPS 24 hours, then three days in culture; FIG. 1E
Method: III. Further, the effect of hemin/HA-LP on TNF-α secretion levels from LPS stimulated RAW264.7 macrophages, on IL-12 cytokine secretion from peritoneal macrophages stimulated with LPS for 24 hours, and expression of HO-1 expression were measured. In addition, the effect of hemin/HA-L on macrophage inflammatory and anti-inflammatory properties was evaluated. First, TNF-α secretion levels from LPS stimulated RAW264.7 macrophages was measured (FIG. 1C, “LP” denoting liposome). […] Next, mouse peritoneal macrophages were stimulated with LPS for 24 hours. After LPS removal, the cells were treated with either hemin/HA-LP, empty HA-LP, free hemin or saline.

[3] = test system: LPS-activated RAW264.7 cells; test: In vitro viability assay (XTT/SRB), LPS-activated macrophages; format: cell-based, mouse; settings: hemin dose of 50 μg/ml and liposome dose of 4 mM lipid, 24 hours, XTT; FIG. 7
Method: I. RAW264.7 cells were seeded onto 96 well plates, and the experiments were initiated 24 hours later, at semi-confluency. The regular (serum supplemented) cell growth media was replaced by the same media but containing one of the following treatments: free hemin, drug-free RL-MLV, HA-MLV, hemin-encapsulating RL-MLV and hemin-encapsulating HA-MLV. Wells receiving the regular cell growth media without any addition served as controls. Incubation time was 24 hours, at the end of which the experiment was terminated and cell viability was determined by the XTT or SRB methods. Both methods yielded similar results.
Cell viability was determined using XTT method. […] In addition, cell viability was also determined by the SRB method, which is independent of mitochondrial enzymes (results not shown). Both methods gave similar results.

peritoneal macrophages = test: Peritoneal macrophage profile following injection after MI (FACS); format: in vivo, mouse; settings: IP one day after MI, three days later
From the text: (§1) Twelve week-old female Balb/C mice (20 gr.) were anesthetized with 2% isoflurane, and were surgically opened by left thoractomy through the fourth intercostal space to expose the beating heart. To induce MI, the left main coronary artery was permanently occluded with an intramural suture.
To determine liposomal hemin effect on peritoneal and cardiac macrophages, hemin was formulated in HA-L. Hemin encapsulation efficiency was ˜100% at therapeutic dose levels. Mice were allocated with hemin/HA-L (2 mg hemin/kg body and 50 mg lipid/kg body), empty liposomes (HA-targeted, 50 mg lipid/kg body), free hemin (2 mg/kg body) or saline (100 μl) by intra-peritoneal injection one day after MI. Three days later, mice were euthanized and peritoneal macrophages were aspirated from abdominal cavity. Cells were counted and stained with an anti-mouse F4/80 (as general macrophage marker) and with either PE-conjugated anti-mouse CD86 (as M1 marker) or FITC-conjugated anti-mouse mannose receptor (CD206; as M2 marker). Cells were analyzed by FACS Calibur cytometer using CellQuest™ software.
Following hemin/HA-L (2 mg hemin/kg body and 50 mg lipid/kg body) injection into mice peritoneum (IP), macrophages from the abdominal cavity were isolated and analyzed by flow cytometry.

[4] = test system: Mouse Model of Myocardial Infarction (MI); test: Histological analysis of infarct size (hematoxylin and eosin), 30 days after MI; format: in vivo; settings: FIG. 13E
From the text: as §1
The imaging results of treatment with Hemin/HA-L (FIG. 13A), free hemin (FIG. 13B), empty liposomes (FIG. 13C) and saline (FIG. 13D) were confirmed by histological analysis, 30 days after MI. […] Noticeably, empty liposomes and free hemin treatments were also associated with a decreased scar tissue (by 40% and 43%), compared with saline (FIG. 13E). Overall, the presented findings indicate that hemin/HA-L is a promising agent to modulate and resolve inflammation following MI by enhancing healing and repair processes.

COS-7 = test: Cell viability (XTT and SRB), COS-7; format: cell-based; settings: 24 hours
Method: (§2) For evaluating the effect of Hemin/HA-L on cancer cells, the liposomes prepared as described above were used. The only difference was in the amount of dry liposome forming lipid powder used in the “cancer aspect”. Specifically, in the following anti-cancer aspect, for rehydration of the hemin, higher amounts of the powder were used to reach a liposome concentration of 10-20 mM lipid.
(§3) The impact of hemin/HA-L at high liposome concentrations on cell viability was tested on five cell lines and compared to the same dose of free hemin, as well as to the same liposomal dose of drug-free HA-L.
(§4) Three of the cell lines originated from human cancers: MDA-MB-231 and MCF-7 from breast cancer and NCI/ADR-Res (abbreviated to NAR) from ovarian cancer. The RAW264.7 cell line is from mouse peritoneal macrophages, and the COS-7 cell line is noncancerous. […] MCF-7 is known to be sensitive to chemotherapeutic drugs, whereas NAR is known to be highly resistant to chemotherapeutic drugs, in the multi-drug resistant mechanism operating by the extrusion pumps of the ABC superfamily of transporters.
(§5) The Results of treating the five cell lines with hemin/HA-L, hemin, drug-free HA-L or control (i.e. untreated) for 24 hours, are shown in Tables 2 and 3, for hemin doses (free or liposomal) of 25 μg/ml and 50 μg/ml, respectively. Cell viability was evaluated by two independent methods: XTT and SRB.

RAW264.7 = test: Cell viability (XTT and SRB), RAW264.7; format: cell-based, mouse; settings: hemin 50 μg/ml, 24 hours
Method: as §2, §3, §4, §5

MCF-7 = test: Cell viability (XTT and SRB), MCF-7; format: cell-based, human; settings: 24 hours
Method: as §2, §3, §4, §5

MDA-MB-231 = test: Cell viability (XTT and SRB), MDA-MB-231; format: cell-based, human; settings: 24 hours
Method: as §2, §3, §4, §5

NCI/ADR-Res = test: Cell viability (XTT and SRB), NCI/ADR-Res; format: cell-based, human; settings: 24 hours
Method: as §2, §3, §4, §5
(§6) To this end, NCI/ADR-Res (NAR) cells were first tested with drug-free regular liposomes and drug-free HA-L, at three liposome doses—4 mM, 10 mM, and 21 mM—lipid, with untreated cells serving as controls. The experiments were performed in 24-well plates, treatment was for 24 hours, and upon termination the active intracellular HO-1 was determined using a commercial kit and following the kit's instructions. Parallel wells were used to evaluate cell viability using the SRB method. The results are presented in FIG. 14 (average of 6 wells; Statistical significance was evaluated by student t test (two tail, unequal variance) for RL vs. control and for HA-L vs. control. *p<0.05, **p<0.003, ***p<0.0001).

HO-1 [5] = test: Intracellular concentration of active HO-1 in NAR cells (commercial kit); format: cell-based, human; settings: hemin 25 μg/ml (free, or encapsulated in 2 mM lipid), 24 hours; FIG. 15
Method: as §6, with “The” for “To this end, NCI/ADR-Res (NAR) cells were first tested with drug-free regular liposomes and drug-free HA-L, at three liposome doses—4 mM, 10 mM, and 21 mM—lipid, with untreated cells serving as controls. The”
In both cases, as also shown in FIG. 15, cell viability (line crossing open circles) was intact.

NAR xenografts = test: Mouse tumor model, tumor volume; format: in vivo; settings: tail vein, 3 injections a week apart; 2 mpk hemin and/or 125 mpk lipid; follow up two weeks after last injection; FIG. 17B
Method: The experimental details and design were as follows: Hsd:Athymic Nude Foxn1nu female mice (8 weeks old, 25 gr.) were inoculated with NAR cells (6.5*10^6 cells/100 μl HBSS), to the flank. Treatment was initiated at tumor volumes of 150-180 mm^3. There were three treatment groups and in all three the solvent was HBSS: (1) mice injected with drug-free HA-L^hi at the dose of 125 mpk lipid. (2) mice injected with free hemin at the dose of 2 mpk and (3) mice injected with hemin/HA-L^hi at the respective doses of 2 mpk (hemin) and 125 mpk (lipid). The injections were to the tail vein, and the injection volume was 200 μl. Each mice was given 3 injections spaced a week apart. Follow up was by animal weight and tumor volume (measured by caliper), up to two weeks after the last injection.

hemin [Free hemin]
TNF-α secretion [1]: no effect
TNF-α secretion ([1]; listed as free hemin): high levels of TNF-α
HO-1 expression within macrophages (HO-1 [2]): highest HO-1 expression
Cell Viability [3]: did not significantly affected cell viability
M2 (anti-inflammatory) peritoneal macrophages (peritoneal macrophages; 2 mg hemin/kg body and/or 50 mg lipid/kg body, FIG. 8C): 6.4±1.5%
M2/M1, peritoneal macrophages (peritoneal macrophages; FIG. 8D): 0.08±0.03
reduction of infarct size (scar tissue) compared with saline [4]: 43%
Cell Viability (COS-7; hemin 25 μg/ml): 99(±3) %
Cell Viability (COS-7; hemin 50 μg/ml): 91(±3) %
Cell Viability (RAW264.7): 119(±17) %
Cell Viability (MCF-7; hemin 25 μg/ml): 104(±4) %
Cell Viability (MCF-7; hemin 50 μg/ml): 108(±5) %
Cell Viability (MDA-MB-231; hemin 25 μg/ml): 92(±13) %
Cell Viability (MDA-MB-231; hemin 50 μg/ml): 91(±8) %
cell viability (SRB) (NCI/ADR-Res; free hemin 25 μg/ml or drug-free HA-L 2 mM lipid, FIG. 15): intact
Cell Viability (NCI/ADR-Res; hemin 25 μg/ml): 120(±7) %
Cell Viability (NCI/ADR-Res; hemin 50 μg/ml): 110(±6) %
intracellular levels of active HO-1 (HO-1 [5]): small, but significant increase
tumor volume (NAR xenografts): slight decrease
